These results are taken from US10273240B2, “Cortistatin analogues, syntheses, and uses thereof” (President and Fellows of Harvard College, priority 2015, dated 2019).

Like-named read-outs stand apart in the source and are kept apart here.

The subject of one experiment is K562. In words: Cell growth assay, K562. The experiment is classed as cell-based. To be noted: Homo sapiens. The method, then:
(§1) All media was supplemented with 100 U/mL penicillin and 100 μg/mL streptomycin. Human cancer cell lines were grown in the following media: MV4; 11, K562, MOLM-14 in RPMI-1640, 10% FBS; SKNO-1 in RPMI-1640, 10% FBS, and 10 ng/mL GM-CSF; MV4;11 and K562 were from ATCC. SKNO-1 was from DSMZ.
(§2) Cell Culture. All media was supplemented with 100 U/mL penicillin and 100 μg/mL streptomycin. Human cancer cell lines were grown in the following media: MV4; 11, RS4; 11, K562, HEL, MOLM-14, MEG-01 in RPMI-1640, 10% FBS; SET-2 in RPMI-1640, 20% FBS; UKE-1 in RPMI-1640, 10% FBS, 10% horse serum and 1 μM hydrocortisone; SKNO-1 and TF-1 in RPMI-1640, 10% FBS, and 10 or 2 ng/mL GM-CSF, respectively; HaCaT in DMEM, 10% FBS; and HCT116 in McCoy's 5 A, 10% FBS (proliferation assay) or DMEM, 10% FBS (gene expression study). HepG2, MV4;11, RS4;11, MEG-01, TF-1, HCT116 and K562 were from ATCC. SKNO-1 was from DSMZ. HEL, UKE-1, and SET-2 were provided by Ross L. Levine and HaCaT, MV4;11-mCLP, and MOLM-14 by Van Wilson, Andrew L. Kung, and Scott A. Armstrong, respectively. MOLM-14 cells were authenticated by STR profiling and flow cytometry and all cell lines were routinely tested and found to be negative for mycoplasma.

A further experiment addresses T1, CDK9 (P-TEFb) (Homo sapiens, UniProt P50750).
T1 construct: made in house
The experiment in a line: In vitro kinase assay, CDK9 (P-TEFb). It is filed as biochemical. As for the experimental part:
Kinase Assays. Data was quantified with ImageJ and plotted and fitted with GraphPad Prism 6.0. For STAT1 transactivation domain (TAD), 750 ng of GST-STAT1 TAD (residues 639-750) was incubated with ˜50 ng recombinant CDK8 module at 30° C. for 8 min in kinase buffer (25 mM Tris pH 8, 2 mM DTT, 100 μM cold ATP, 100 mM KCl, 10 mM MgCl2 and 2.5 μCi [γ-^32P] ATP (Perkin Elmer) per reaction). […] 12% SDS-PAGE gels were subsequently silver stained, exposed for 18 h on a Phosphor Screen and imaged (Typhoon 9400, GE Life Sciences). For pol II CTD, 400 ng of GST-CTD (murine sequence) was incubated with ˜40 ng recombinant CDK8 module, 25 ng TFIIH, or 40 ng P-TEFb at 30° C. for 60 min in kinase buffer. Kinase amounts were chosen to give similar total pol II CTD signal. 9% SDS-PAGE gels were silver stained and exposed as above. In vitro FLAG-CDK8 kinase assays used ˜40 ng kinase and 500 ng GST-CTD. For STAT1 or Smad2/3, cells were treated with compound for 1 h followed by IFN-γ or TGF-β1 for 1 h, then washed twice with cold PBS, and lysed (RIPA buffer with inhibitors R0278, P8340, P0044, P5762 Sigma-Aldrich). Standard immunoblotting was then performed with one immunoblot shown. All experiments were performed twice.
Protein Purification. Buffers for purification and elution of recombinant proteins included 0.25 mM PMSF, 1 mM DTT, 1 mM benzamidine, and 1 mM sodium metabisulfite. […]

A further experiment concerns MV4;11. The experiment in a line: Cell growth assay, MV4;11. It is filed as cell-based. The note with it: Homo sapiens. The method, then:
as §1, §2

Experiment [1] has as its target T2, GSG2 in MOLM-14 cell lysate (Homo sapiens, UniProt Q8TF76).
T2 construct: endogenous in cells; host or cells: MOLM-14 cell lysate
In words: Native kinase capture immunoblot, GSG2. It is filed as binding. The method, then:
(§3) Native Kinase Capture Immunoblot and Native Kinome-Wide Profiling. […] Experiment was performed twice with one immunoblot shown.
For orientation: Immunoblotting shows a protein as a band on a membrane.

For experiment [2], the target named is T3, CDK13 in MOLM-14 cell lysate (Homo sapiens, UniProt Q14004).
T3 construct: endogenous in cells; host or cells: MOLM-14 cell lysate
In words: Native kinase capture immunoblot, CDK13. The experiment is classed as binding. As for the experimental part:
as §3

Another experiment deals with HEL. In words: Cell growth assay, HEL. It is filed as cell-based. To be noted: Homo sapiens, 240 h, CA, after 10 days, read-out: Mean GI50 (nM), HEL. As for the experimental part: as §2

T1 sequence (P50750 1-345 limits assumed): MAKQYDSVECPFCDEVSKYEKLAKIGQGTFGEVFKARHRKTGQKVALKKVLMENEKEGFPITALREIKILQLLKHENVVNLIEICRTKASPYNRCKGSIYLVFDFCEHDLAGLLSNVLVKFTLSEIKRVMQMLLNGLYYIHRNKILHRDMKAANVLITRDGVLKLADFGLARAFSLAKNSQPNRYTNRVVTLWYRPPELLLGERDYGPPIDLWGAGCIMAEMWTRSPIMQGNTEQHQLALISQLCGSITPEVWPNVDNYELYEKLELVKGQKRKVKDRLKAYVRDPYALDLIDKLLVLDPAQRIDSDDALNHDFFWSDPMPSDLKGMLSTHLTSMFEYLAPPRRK
T1 sequence (O60563 1-266 partner limits assumed): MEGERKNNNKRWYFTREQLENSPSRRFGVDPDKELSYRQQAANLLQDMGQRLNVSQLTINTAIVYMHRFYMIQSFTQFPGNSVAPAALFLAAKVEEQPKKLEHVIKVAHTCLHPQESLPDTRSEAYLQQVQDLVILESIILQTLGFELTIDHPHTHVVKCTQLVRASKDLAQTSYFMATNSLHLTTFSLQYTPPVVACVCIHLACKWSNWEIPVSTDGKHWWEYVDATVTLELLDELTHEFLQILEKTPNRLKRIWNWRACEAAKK
T3 sequence (Q14004 whole entry): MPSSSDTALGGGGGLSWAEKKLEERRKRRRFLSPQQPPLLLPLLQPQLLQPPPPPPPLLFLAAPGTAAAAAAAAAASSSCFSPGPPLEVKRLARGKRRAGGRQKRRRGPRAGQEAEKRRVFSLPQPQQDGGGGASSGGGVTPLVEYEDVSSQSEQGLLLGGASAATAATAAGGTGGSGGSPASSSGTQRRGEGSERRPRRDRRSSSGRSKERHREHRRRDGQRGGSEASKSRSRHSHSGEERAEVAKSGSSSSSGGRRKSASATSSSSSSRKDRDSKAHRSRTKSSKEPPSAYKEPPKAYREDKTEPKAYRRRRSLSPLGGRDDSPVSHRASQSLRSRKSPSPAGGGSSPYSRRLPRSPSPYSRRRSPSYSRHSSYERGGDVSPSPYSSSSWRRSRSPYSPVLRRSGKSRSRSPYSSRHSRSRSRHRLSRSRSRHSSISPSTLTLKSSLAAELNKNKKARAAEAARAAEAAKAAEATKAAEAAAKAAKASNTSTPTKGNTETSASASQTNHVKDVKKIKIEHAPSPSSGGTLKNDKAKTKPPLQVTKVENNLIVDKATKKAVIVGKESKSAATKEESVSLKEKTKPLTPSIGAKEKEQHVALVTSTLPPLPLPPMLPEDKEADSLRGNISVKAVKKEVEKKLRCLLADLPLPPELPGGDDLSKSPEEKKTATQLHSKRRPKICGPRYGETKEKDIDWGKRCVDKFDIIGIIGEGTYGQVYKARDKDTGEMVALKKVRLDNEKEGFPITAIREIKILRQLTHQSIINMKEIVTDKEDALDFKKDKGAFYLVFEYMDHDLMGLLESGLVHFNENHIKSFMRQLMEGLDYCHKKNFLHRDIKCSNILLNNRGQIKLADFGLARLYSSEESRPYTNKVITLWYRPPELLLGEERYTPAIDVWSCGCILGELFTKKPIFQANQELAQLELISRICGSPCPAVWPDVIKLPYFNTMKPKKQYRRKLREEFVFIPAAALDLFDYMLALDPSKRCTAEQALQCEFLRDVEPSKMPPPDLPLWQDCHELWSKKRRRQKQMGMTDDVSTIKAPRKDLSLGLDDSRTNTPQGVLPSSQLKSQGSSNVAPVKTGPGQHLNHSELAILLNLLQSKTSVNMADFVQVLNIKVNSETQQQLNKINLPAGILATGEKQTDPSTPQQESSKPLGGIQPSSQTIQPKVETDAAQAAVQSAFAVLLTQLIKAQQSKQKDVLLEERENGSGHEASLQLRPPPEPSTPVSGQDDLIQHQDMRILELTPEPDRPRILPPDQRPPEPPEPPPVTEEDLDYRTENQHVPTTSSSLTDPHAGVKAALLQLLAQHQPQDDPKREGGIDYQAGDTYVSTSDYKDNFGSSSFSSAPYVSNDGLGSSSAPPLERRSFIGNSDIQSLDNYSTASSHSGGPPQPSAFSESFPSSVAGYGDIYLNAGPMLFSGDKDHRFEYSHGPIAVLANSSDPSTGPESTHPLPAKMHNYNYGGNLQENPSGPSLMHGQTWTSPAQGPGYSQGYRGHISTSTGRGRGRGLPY
T3 sequence (O75909 whole entry partner): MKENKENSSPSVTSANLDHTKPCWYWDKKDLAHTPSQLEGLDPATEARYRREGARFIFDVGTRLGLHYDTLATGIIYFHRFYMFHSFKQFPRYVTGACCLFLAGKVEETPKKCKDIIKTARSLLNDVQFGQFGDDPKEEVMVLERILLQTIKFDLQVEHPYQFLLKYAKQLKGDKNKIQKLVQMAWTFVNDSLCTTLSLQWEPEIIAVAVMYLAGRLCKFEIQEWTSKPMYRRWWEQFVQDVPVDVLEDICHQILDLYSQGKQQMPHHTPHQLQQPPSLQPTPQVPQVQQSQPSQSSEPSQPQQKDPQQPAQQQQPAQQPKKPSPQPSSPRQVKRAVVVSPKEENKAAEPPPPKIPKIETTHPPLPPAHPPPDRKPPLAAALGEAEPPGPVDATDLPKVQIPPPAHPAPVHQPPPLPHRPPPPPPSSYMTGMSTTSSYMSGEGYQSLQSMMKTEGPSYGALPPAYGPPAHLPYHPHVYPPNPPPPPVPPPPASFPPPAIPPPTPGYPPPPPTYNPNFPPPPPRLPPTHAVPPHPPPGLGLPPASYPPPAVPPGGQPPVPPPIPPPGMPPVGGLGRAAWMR
T2 sequence (Q8TF76 whole entry): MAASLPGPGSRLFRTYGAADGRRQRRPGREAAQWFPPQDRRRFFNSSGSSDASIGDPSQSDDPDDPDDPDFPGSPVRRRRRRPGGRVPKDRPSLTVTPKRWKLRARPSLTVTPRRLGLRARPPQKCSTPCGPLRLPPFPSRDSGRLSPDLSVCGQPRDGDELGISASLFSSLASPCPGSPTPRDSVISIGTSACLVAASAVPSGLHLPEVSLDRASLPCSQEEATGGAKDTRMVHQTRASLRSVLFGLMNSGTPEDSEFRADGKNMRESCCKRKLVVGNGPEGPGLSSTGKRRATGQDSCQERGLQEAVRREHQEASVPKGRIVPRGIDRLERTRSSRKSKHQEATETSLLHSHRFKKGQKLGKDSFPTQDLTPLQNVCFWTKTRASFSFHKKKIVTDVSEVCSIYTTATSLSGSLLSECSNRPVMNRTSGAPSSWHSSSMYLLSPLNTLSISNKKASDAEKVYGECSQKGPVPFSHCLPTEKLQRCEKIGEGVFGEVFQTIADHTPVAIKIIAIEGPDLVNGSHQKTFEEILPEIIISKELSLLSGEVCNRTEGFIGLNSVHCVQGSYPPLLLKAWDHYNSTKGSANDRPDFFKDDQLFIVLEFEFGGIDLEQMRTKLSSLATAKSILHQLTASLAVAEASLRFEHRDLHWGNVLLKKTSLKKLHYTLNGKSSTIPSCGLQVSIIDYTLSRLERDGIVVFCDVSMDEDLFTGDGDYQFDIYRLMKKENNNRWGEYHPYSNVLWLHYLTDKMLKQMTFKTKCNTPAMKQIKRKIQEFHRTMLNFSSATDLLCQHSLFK

Consider `CN(C)[C@H]1C[C@@]23CC[C@@]4(O2)C(=CC[C@@]2(C)[C@@H](c5ccc6ccncc6c5)CC[C@H]24)C=C3[C@@H](O)[C@@H]1O` [CA, cortistatin A], for which the GI50 in the experiment on K562 (K562, 240 h, CA, after 10 days, read-out: Mean GI50 (nM), K562) is over 1000 nM; in the experiment on K562 (K562, 240 h, read-out: K562 GI50 day 10), over 1000 nM; in the experiment on K562 (K562, Table 5, read-out: GI50 (nM), K562) it was over 1000 nM; in the experiment with MV4;11 (MV4-11, 240 h, CA, after 10 days, read-out: Mean GI50 (nM), MV4;11), 6 nM; in the experiment on MV4;11 (MV4-11, 240 h, read-out: MV4;11 GI50 day 10), 3.5 nM; in the experiment on MV4;11 (MV4-11, Table 5, read-out: GI50 (nM), MV4;11), 6 nM. For the same compound, the GI50 in the experiment on HEL is over 1000 nM. For the same compound, on CDK9 (P-TEFb), the “inhibition of CDK9 (P-TEFb)” value is given as “did not inhibit”. Moreover, in experiment [1], the “binding of GSG2 (no binding at up to)” value is given as over 2500 nM. Moreover, the “binding of CDK13 (no binding at up to)” value in experiment [2] is recorded as over 2500 nM.
